Results as given in ChEMBL document CHEMBL5120829, “Discovery and structural optimization of potent epidermal growth factor receptor (EGFR) inhibitors against L858R/T790M/C797S resistance mutation for lung cancer treatment” (Eur J Med Chem, 2022).

How the values were obtained:
[1] = system: Epidermal growth factor receptor (Homo sapiens), P00533 [L858R,T790M,C797S]; assay: Inhibition of EGFR L858R/T790M/C797S mutant (unknown origin) at 0.5 uM relative to control
[2] = system: Epidermal growth factor receptor (Homo sapiens), P00533 [L858R,T790M,C797S]; assay: Inhibition of EGFR L858R/T790M/C797S mutant (unknown origin) at 1 uM relative to control
[3] = molecular target: Epidermal growth factor receptor (Homo sapiens, UniProt P00533, C797S/L858R/T790M); assay: Inhibition of EGFR L858R/T790M/C797S mutant (unknown origin)
Epidermal growth factor receptor, sequence (P00533 25-1210 T790M/C797S/L858R limits assumed): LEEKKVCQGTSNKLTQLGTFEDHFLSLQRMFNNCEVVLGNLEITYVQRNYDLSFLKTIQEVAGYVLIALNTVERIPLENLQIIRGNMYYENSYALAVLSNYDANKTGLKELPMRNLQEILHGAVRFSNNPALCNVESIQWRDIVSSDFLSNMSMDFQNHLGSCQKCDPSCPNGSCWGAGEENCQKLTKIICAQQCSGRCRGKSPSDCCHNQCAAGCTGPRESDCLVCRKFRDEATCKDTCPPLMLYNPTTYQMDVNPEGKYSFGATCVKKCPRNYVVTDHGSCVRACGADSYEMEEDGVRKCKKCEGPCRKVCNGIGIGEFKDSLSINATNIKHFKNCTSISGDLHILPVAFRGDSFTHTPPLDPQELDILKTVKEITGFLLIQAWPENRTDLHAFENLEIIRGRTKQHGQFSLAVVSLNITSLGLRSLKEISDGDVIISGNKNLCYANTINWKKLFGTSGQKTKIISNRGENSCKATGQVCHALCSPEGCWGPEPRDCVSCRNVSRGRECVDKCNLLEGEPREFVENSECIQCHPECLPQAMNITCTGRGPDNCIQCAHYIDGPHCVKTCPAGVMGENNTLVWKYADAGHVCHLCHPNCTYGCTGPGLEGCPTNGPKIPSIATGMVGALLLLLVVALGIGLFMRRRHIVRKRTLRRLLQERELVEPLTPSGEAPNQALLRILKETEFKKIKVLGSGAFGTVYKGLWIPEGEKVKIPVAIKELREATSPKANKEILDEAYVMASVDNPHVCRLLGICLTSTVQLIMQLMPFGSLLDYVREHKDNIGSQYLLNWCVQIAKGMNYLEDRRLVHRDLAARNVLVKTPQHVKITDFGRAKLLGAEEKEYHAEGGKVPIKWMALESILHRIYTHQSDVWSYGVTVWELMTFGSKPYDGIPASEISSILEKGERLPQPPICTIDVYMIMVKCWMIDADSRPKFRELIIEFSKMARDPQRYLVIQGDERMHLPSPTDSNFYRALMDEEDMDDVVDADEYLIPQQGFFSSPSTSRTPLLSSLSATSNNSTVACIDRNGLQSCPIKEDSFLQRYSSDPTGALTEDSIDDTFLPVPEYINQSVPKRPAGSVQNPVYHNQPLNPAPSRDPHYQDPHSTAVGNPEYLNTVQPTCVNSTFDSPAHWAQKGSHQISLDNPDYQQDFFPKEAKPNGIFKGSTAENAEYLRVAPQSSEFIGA

[4] = system: A549; assay: Antiproliferative activity against human A549 cells assessed as inhibition of cell growth incubated for 72 hrs by CCK-8 assay; format: functional, cell-based; conditions: A549, 72 h
[5] = system: PC-9; assay: Antiproliferative activity against human PC-9 cells expressing EGFR L858R/T790M/C797S mutant assessed as inhibition of cell growth incubated for 72 hrs by CCK-8 assay; format: functional, cell-based; conditions: PC-9, 72 h
[6] = system: A-431; assay: Antiproliferative activity against human A-431 cells assessed as inhibition of cell growth incubated for 72 hrs by CCK-8 assay; format: functional, cell-based; conditions: A-431, 72 h

Epidermal growth factor receptor (Homo sapiens), P00533 [L858R,T790M,C797S], sequence (P00533 whole entry T790M/C797S/L858R): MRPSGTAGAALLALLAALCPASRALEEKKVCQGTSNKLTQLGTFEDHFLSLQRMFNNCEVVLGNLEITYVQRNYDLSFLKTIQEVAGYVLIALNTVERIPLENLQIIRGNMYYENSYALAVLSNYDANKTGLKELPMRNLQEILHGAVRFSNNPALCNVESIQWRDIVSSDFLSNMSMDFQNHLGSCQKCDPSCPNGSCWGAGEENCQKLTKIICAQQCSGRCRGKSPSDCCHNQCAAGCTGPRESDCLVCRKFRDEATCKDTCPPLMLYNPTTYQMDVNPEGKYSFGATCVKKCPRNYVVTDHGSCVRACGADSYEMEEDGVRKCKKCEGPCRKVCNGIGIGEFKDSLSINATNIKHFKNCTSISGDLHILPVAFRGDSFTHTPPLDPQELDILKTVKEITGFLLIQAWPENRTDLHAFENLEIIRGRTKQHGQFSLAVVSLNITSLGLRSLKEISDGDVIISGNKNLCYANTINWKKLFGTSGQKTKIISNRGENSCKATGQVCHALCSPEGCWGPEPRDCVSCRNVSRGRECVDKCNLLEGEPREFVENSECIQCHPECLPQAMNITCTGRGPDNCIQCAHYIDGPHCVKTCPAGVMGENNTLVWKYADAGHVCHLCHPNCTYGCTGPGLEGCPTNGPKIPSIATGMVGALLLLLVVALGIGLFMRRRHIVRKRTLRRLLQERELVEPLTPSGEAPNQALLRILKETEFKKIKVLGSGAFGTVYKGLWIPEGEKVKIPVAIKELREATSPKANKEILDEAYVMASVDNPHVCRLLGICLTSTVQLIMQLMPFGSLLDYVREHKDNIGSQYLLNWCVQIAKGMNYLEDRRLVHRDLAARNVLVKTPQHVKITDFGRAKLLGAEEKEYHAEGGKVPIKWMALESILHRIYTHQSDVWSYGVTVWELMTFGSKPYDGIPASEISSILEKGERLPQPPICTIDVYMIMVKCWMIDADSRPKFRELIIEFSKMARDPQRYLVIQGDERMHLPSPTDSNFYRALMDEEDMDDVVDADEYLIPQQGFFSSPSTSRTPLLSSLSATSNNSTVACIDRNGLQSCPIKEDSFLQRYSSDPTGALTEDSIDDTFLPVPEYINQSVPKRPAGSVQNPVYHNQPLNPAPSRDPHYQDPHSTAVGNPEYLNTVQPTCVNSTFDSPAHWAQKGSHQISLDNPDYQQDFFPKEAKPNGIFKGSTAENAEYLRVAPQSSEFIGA

Row | inhibition [1] [%] | inhibition [2] [%] | IC50 [3] [nM] | IC50 [4] [nM] | IC50 [5] [nM] | IC50 [6] [nM] | Compound
1 | 16 | 20 | – | – | – | – | C=CC(=O)Nc1cc(Nc2ncc3cc(C(=O)Nc4ccccc4)n(C4CCCC4)c3n2)c(OC)cc1N1CCC(N2CCN(C)CC2)CC1
2 | -2.6 | 4.1 | – | – | – | – | C=CC(=O)Nc1cc(Nc2ncc3cc(C(=O)Nc4ccnc(OC)c4)n(C4CCCC4)c3n2)c(OC)cc1N(C)CCN(C)C
3 | 18 | 26 | – | – | – | – | C=CC(=O)Nc1cc(Nc2ncc3cc(C(=O)Nc4ccccc4)n(C4CCCC4)c3n2)c(OC)cc1N(C)CCN(C)C
4 | -5 | -1.3 | – | – | – | – | C=CC(=O)Nc1cc(Nc2ncc3cc(C(=O)Nc4cccc(OC)c4)n(C)c3n2)c(OC)cc1N(C)CCN(C)C
5 | -1.4 | -8.4 | – | – | – | – | C=CC(=O)Nc1cc(Nc2ncc3cc(CNc4cc(C)cc(C)c4)n(C4CCCC4)c3n2)c(OC)cc1N(C)CCN(C)C
6 | 12 | 16 | – | – | – | – | C=CC(=O)Nc1cc(Nc2ncc3cc(C(=O)Nc4cccc(N(C)C)c4)n(C4CCCC4)c3n2)c(OC)cc1N(C)CCN(C)C
7 | 4.7 | 10 | – | – | – | – | C=CC(=O)Nc1cc(Nc2ncc3cc(C(=O)Nc4cccc(C(F)(F)F)c4)n(C4CCCC4)c3n2)c(OC)cc1N(C)CCN(C)C
8 | 18 | 21 | – | – | – | – | C=CC(=O)Nc1cc(Nc2ncc3cc(C(=O)Nc4ccccc4)n(C4CCCC4)c3n2)c(OC)cc1N1CCN(C(C)C)CC1
9 | 23 | 23 | – | – | – | – | C=CC(=O)Nc1cc(Nc2ncc3cc(C(=O)Nc4ccccc4)n(C4CCCC4)c3n2)c(OC)cc1N1CCN(C)CC1
10 | 1.4 | 3.2 | – | – | – | – | C=CC(=O)Nc1cc(Nc2ncc3cc(C(=O)Nc4cccc(OC)c4)n(C4CCCC4)c3n2)c(OC)cc1N1CCOCC1
11 | 9.3 | 12 | – | – | – | – | C=CC(=O)Nc1cc(Nc2ncc3cc(C(=O)Nc4cccc(OC)c4)n(C(C)C)c3n2)c(OC)cc1N(C)CCN(C)C
12 | 11 | 17 | – | – | – | – | C=CC(=O)Nc1cc(Nc2ncc3cc(C(=O)Nc4cccc(OC)c4)n(C4CCCC4)c3n2)c(OC)cc1N(C)CCN(C)C
13 | 7.3 | 8.7 | – | – | – | – | C=CC(=O)Nc1cc(Nc2ncc3cc(C(=O)Nc4ccc(OC)c(OC)c4)n(C4CCCC4)c3n2)c(OC)cc1N(C)CCN(C)C
14 | 4.8 | 6.5 | – | – | – | – | C=CC(=O)Nc1cc(Nc2ncc3cc(C(=O)NC4CCCCC4)n(C4CCCC4)c3n2)c(OC)cc1N(C)CCN(C)C
15 | 15 | 16 | – | – | – | – | C=CC(=O)Nc1cc(Nc2ncc3cc(C(=O)Nc4cccc(OC)c4)n(C4CCCC4)c3n2)c(OC)cc1N1CCC(N(C)C)CC1
16 | 41 | 56 | – | – | – | – | C=CC(=O)Nc1cc(Nc2ncc3cc(CNc4cccc(OC)c4)n(C4CCCC4)c3n2)c(OC)cc1N(C)CCN(C)C
17 | 48 | 61 | – | – | – | – | C=CC(=O)Nc1cc(Nc2ncc3cc(CNc4cccc(C)c4)n(C4CCCC4)c3n2)c(OC)cc1N(C)CCN(C)C
18 | 1.1 | 4.9 | – | – | – | – | C=CC(=O)Nc1cc(Nc2ncc3cc(C(=O)Nc4cccc(OC)c4)n(C4CCCCC4)c3n2)c(OC)cc1N(C)CCN(C)C
19 | 78 | 82 | 55 | 2980 | 206 | 3150 | COc1cc(N2CCC(N3CCN(C)CC3)CC2)ccc1Nc1ncc2cc(CNc3ccccc3)n(C3CCCC3)c2n1

Row | inhibition [1] [%] | inhibition [2] [%] | IC50 [3] [nM] | IC50 [4] [nM] | IC50 [5] [nM] | IC50 [6] [nM] | Compound
20 | 5.2 | 22 | – | – | – | – | C=CC(=O)Nc1cc(Nc2ncc3cc(C(=O)Nc4cccc(O)c4)n(C4CCCC4)c3n2)c(OC)cc1N(C)CCN(C)C
21 | 2.8 | 9.5 | – | – | – | – | C=CC(=O)Nc1cc(Nc2ncc3cc(C(=O)Nc4ccc(OC)cc4)[nH]c3n2)c(OC)cc1N(C)CCN(C)C
22 | 23 | 40 | – | – | – | – | C=CC(=O)Nc1cc(Nc2ncc3cc(CNc4c(C)cccc4C)n(C4CCCC4)c3n2)c(OC)cc1N(C)CCN(C)C
23 | 8.1 | 10 | – | – | – | – | C=CC(=O)Nc1cc(Nc2ncc3cc(C(=O)Nc4ccc(F)c(Cl)c4)n(C4CCCC4)c3n2)c(OC)cc1N(C)CCN(C)C
24 | -10 | 8.3 | – | – | – | – | C=CC(=O)Nc1cc(Nc2ncc3cc(C(=O)Nc4ccnc(C)c4)n(C4CCCC4)c3n2)c(OC)cc1N(C)CCN(C)C
25 | 7 | 7.8 | – | – | – | – | C=CC(=O)Nc1cc(Nc2ncc3cc(C(=O)Nc4cccc(OC)c4)n(C4CC4)c3n2)c(OC)cc1N(C)CCN(C)C
26 | 7.5 | 18 | – | – | – | – | C=CC(=O)Nc1cc(Nc2ncc3cc(C(=O)Nc4ccccc4OC)n(C4CCCC4)c3n2)c(OC)cc1N(C)CCN(C)C
27 | 21 | 37 | – | – | – | – | C=CC(=O)Nc1cc(Nc2ncc3cc(C(=O)Nc4ccccc4)n(C4CCCC4)c3n2)ccc1N1CCN(C)CC1
28 | 88 | 90 | 304 | 426 | 248 | 1120 | CN(C)CCN(C)c1ccc(Nc2ncc3cc(CNc4ccccc4)n(C4CCCC4)c3n2)cc1
29 | 6.7 | 14 | – | – | – | – | C=CC(=O)Nc1cc(Nc2ncc3cc(C(=O)Nc4cccc(C)c4)n(C4CCCC4)c3n2)c(OC)cc1N(C)CCN(C)C
30 | 3.7 | 3 | – | – | – | – | C=CC(=O)Nc1cc(Nc2ncc3cc(C(=O)Nc4cccc(C#N)c4)n(C4CCCC4)c3n2)c(OC)cc1N(C)CCN(C)C
31 | -1.9 | 0.6 | – | – | – | – | C=CC(=O)Nc1cc(Nc2ncc3cc(C(=O)Nc4cccc(OC(F)(F)F)c4)n(C4CCCC4)c3n2)c(OC)cc1N(C)CCN(C)C
32 | 0.5 | 13 | – | – | – | – | C=CC(=O)Nc1cc(Nc2ncc3cc(C(=O)Nc4ccc5c(c4)OCO5)n(C4CCCC4)c3n2)c(OC)cc1N(C)CCN(C)C
33 | 4.1 | 6 | – | – | – | – | C=CC(=O)Nc1cc(Nc2ncc3cc(C(=O)Nc4cccc(OC)c4)n(-c4ccccc4)c3n2)c(OC)cc1N(C)CCN(C)C
34 | 80 | 83 | 10 | 1630 | 261 | 3080 | COc1cc(N2CCC(N(C)C)CC2)ccc1Nc1ncc2cc(CNc3ccccc3)n(C3CCCC3)c2n1
35 | 3.1 | 5.3 | – | – | – | – | C=CC(=O)Nc1cc(Nc2ncc3cc(C(=O)Nc4cc(OC)c(OC)c(OC)c4)n(C4CCCC4)c3n2)c(OC)cc1N(C)CCN(C)C
36 | 13 | 23 | – | – | – | – | C=CC(=O)Nc1cc(Nc2ncc3cc(C(=O)NC4CCCc5ccccc54)n(C4CCCC4)c3n2)c(OC)cc1N(C)CCN(C)C (stereo unspecified)
37 | -2.3 | -0.3 | – | – | – | – | C=CC(=O)Nc1cc(Nc2ncc3cc(C(=O)Nc4cccc(OC)c4)n(C4CCCC4)c3n2)c(OC)cc1N1CCN(CCOC)CC1
